test system: ISR pathway (ATF4 translation), H4 ATF4-NLuc (clone 17) cell line; assay: ATF4 Nano Luciferase reporter integrated stress response (ISR) assay in H4 ATF4-NLuc cells; format: cell-based; settings: human H4 neuroglioma ATF4-NLuc cells; compound 30 minutes, then 50 μm sodium arsenite for 6 hours; luminescence readout
From the text: Cellular stress leads to activation of the integrated stress response pathway through one of four eukaryotic initiation factor 2α kinases and halts global translation, while allowing for the translation of select transcripts like ATF4 (activating transcription factor 4) that are important for the response to cellular stress. During normal conditions, small open reading frames (ORFs) in the 5′ UTR of ATF4 occupy the ribosome and prevent translation of the coding sequence of ATF4. During stress conditions however, the ribosome scans past these upstream ORFs and preferentially begins translation at the coding sequence of ATF4. In this way, the translation, and thus protein level of ATF4 is a readout of ISR pathway activation. Thus, a fusion of the uORFs and the beginning of the coding sequence of ATF to a common cellular reporter like nano-luciferase allows for a sensitive and high-throughput readout of ISR pathway activity.
Compounds as provided herein were tested in the following assay. The ATF4 Nano Luciferase reporter was constructed by fusing the human full length 5′ untranslated region (5′-UTR) and a small portion of the coding sequence of the ATF4 gene upstream of the Nano Luciferase (NLuc) coding sequence lacking it's start codon. Specifically, nucleotides +1 through +364 (relative to the transcriptional start site) of ATF4 transcript variant 2 (NCBI NM_182810.2) flanked 5′ by EcoRI and 3′ by BamHI restriction enzyme sites were synthesized and cloned into the EcoRI/BamHI cloning sites of pLVX-EF1a-IRES-Puro lentivirus vector (Clontech). Lentiviral particles were produced with Lenti-X single shots (VSV-G, Clontech) according to the manufacturer's instructions and used to transduce a human H4 neuroglioma cell line (ATCC HT1B-148). H4 cells were selected with 1.25 μg/mL Puromycin, and clonal cell lines generated by limiting dilution. We utilized this cell line to generate an integrated stress response (ISR) assay to evaluate the activity of ISR pathway inhibitors via luminescence readout. The H4 ATF4-NLuc (clone 17) cell line is plated at a density of […] cells in 96-well or 384-well respectively in DMEM +10% fetal bovine serum. 24-hours later test compounds diluted in dimethyl sulfoxide (DMSO) are added for 30 minutes at 37° C., followed by ISR pathway activation with 50 μm sodium arsenite aqueous solution for 6 additional hours. Nano Glo luciferase reagent (N1150, Promega) is added according to manufacturer instructions and the luminescence signal (corresponding to the level of ATF4 translation and thus ISR pathway activation) is read with a standard plate reader with luminescence detection capabilities.
In the tables below, activity of the tested compounds is provided, and in Table 3 as follows: +++=0.003 μM<IC50<1 μM; ++=IC50 1-10 μM; +=IC50>10 μM.

Row | SMILES | IC50 [µM]
1 | O=C(COc1ccc(C(F)(F)F)cc1)N[C@@H]1CC[C@@H](C(=O)N2C[C@@H]3[C@H](C2)[C@H]3C(F)(F)F)OC1 [Example 8, N-[(3R,6S)-6-[(1r,5s)-6-(trifluoromethyl)-3-azabicyclo[3.1.0]hexane-3-carbonyl]tetrahydropyran-3-yl]-2-[4-(trifluoromethyl)phenoxy]acetamide] | 1 to 10
2 | O=C(COc1ccc(C(F)(F)F)cc1)N[C@@H]1CC[C@@H](C(=O)Nc2ccc3ccc(Cl)cc3n2)OC1 [Example 7, (2S,5R)-N-(7-chloro-2-quinolyl)-5-[[2-[4-(trifluoromethyl)phenoxy]acetyl]amino]tetrahydropyran-2-carboxamide] | 0.003 to 1
3 | O=C(COc1ccc(C(F)(F)F)cc1)N[C@@H]1CC[C@@H](C(=O)Nc2ccc3cc(C(F)(F)F)ccc3n2)OC1 [Example 28, (2S,5R)-5-[[2-[4-(trifluoromethyl)phenoxy]acetyl]amino]-N-[6-(trifluoromethyl)-2-quinolyl]tetrahydropyran-2-carboxamide] | 0.003 to 1

Now from value to molecule:

Row | IC50 [µM] | SMILES
4 | 0.003 to 1 | C[C@@H](NC(=O)[C@@H]1CC[C@@H](NC(=O)COc2ccc(Cl)cc2)CO1)c1ccc(Cl)cc1 [Example 17, (2S,5R)-5-[[2-(4-chlorophenoxy)acetyl]amino]-N-[(1R)-1-(4-chlorophenyl)ethyl] tetrahydropyran-2-carboxamide]
5 | 0.003 to 1 | O=C(COc1ccc(Cl)cc1)N[C@@H]1CC[C@@H](C(=O)N2CCc3ccc(Cl)cc3C2)OC1 [Example 21, 2-(4-chlorophenoxy)-N-[(3R,6S)-6-(7-chloro-3,4-dihydro-1H-isoquinoline-2-carbonyl)tetrahydropyran-3-yl]acetamide]
6 | 0.003 to 1 | O=C(N[C@H]1C[C@@H](COC(F)(F)F)C1)[C@@H]1CC[C@@H](n2cnc(-c3ccc(Cl)c(F)c3)c2)CO1 [Example 24, (2S,5R)-5-[4-(4-chloro-3-fluoro-phenyl)imidazol-1-yl]-N-[3-cis-(trifluoromethoxymethyl)cyclobutyl] tetrahydropyran-2-carboxamide]

Source: US20220177456A1, “COMPOUNDS, COMPOSITIONS AND METHODS” (Denali Therapeutics Inc., priority 2019, published 2022)
